Earlier results in patent publication US20060172021A1, “Herbal compositions for the prevention or treatment of symptoms of stress and infection” (priority 2005, published 2006).

Key:
female mice = conditions: mouse, in vivo
[1] = tested on: human progesterone production

Row | Molecule | Inhibition of prostaglandin synthesis (prostaglandin synthesis) | other results
1 | C=C1CC[C@@H]2[C@](C)(CO)[C@H](O)CC[C@@]2(C)[C@@H]1/C=C/C1=CCOC1=O [dehydroandrographolide] | – | Dose required to affect pregnancy (female mice): 250 mg/kg. of body weight. This amount of pure
2 | andrographolide sodium succinate | – | Detrimental effects on other normal human tissue [1]: intended for. There were no detrimental effects; Inhibition of human progesterone production ([1]; cultured human placental tissue): (derived from AP) was effective in inhibiting
3 | CCCCCC(=O)CC(=O)CCc1ccc(O)c(OC)c1 [gingerdione] | potent inhibitors | –
4 | CCCCCC(=O)/C=C(O)/C=C\c1ccc(O)c(OC)c1 [dehydrogingerdione] | potent inhibitors | –
5 | CCCCC[C@H](O)CC(=O)CCc1ccc(O)c(OC)c1 [gingerol] | potent inhibitors | –
